Earlier results in patent publication US20120058932A1, “ACTIVE INGREDIENT-PEPTIDE CONSTRUCT FOR EXTRACELLULAR CONCENTRATION” (MAX PLANCK-GESELLSCHAFT ZUR FORDERUNG DER WISSENSCHAFTEN …, priority 2008, published 2012).

Settings: blood cells vs plasma

- Concentration in blood cells relative to the surrounding plasma: approximately 8 ×
Structure (SMILES): C/C=C/C[C@@H](C)[C@@H](O)[C@H]1C(=O)N[C@@H](CC)C(=O)N(C)CC(=O)N(C)[C@@H](CC(C)C)C(=O)N[C@@H](C(C)C)C(=O)N(C)[C@@H](CC(C)C)C(=O)N[C@@H](C)C(=O)N[C@H](COCCO)C(=O)N(C)[C@@H](CC(C)C)C(=O)N(C)[C@@H](CC(C)C)C(=O)N(C)[C@@H](C(C)C)C(=O)N1C [SDZ IMM 125]
